Measurements published in patent US9387183B2, “Method of treating diabetes-related impaired wound healing” (KUWAIT UNIVERSITY, priority 2011, dated 2016).

Columns and labels:
[1] = Global physiological characteristics of diabetic rats (weights, plasma and wound fluid hormones, oxidative stress); format: in vivo, rat; conditions: for Plasma F2 Isoprostanes: index of oxidative stress
Experimental: All animal procedures were performed in accordance with the NIH Guidance for the Care and Use of Laboratory Animals. The current study used the mildly hyperglycemic, non-obese Goto-Kakizaki (GK) spontaneously diabetic rats, produced by selective inbreeding of glucose-intolerant Wistar rats as a genetic model for type 2 diabetes. Weight-matched female Wistar rats (Kuwait University breeding colony) served as controls. All animals were maintained under standard conditions with 12 hours on/off light cycle, commercial diet, and water ad libitum. Rats destined for various experimental manipulations, including wounding, insulin sensitivity, and drug treatment, were initially matched with regard to body weight (e.g., 230 to 250 g), plasma levels of glucose, free fatty acids and insulin. These indices are commonly used to reflect the severity of the diabetic state.
Cycling control rats in proestrus were used as a reference group. Similarly, the diabetic rats were also treated with PEG-sTNF-RI, a soluble long-lasting form of TNF-RI that neutralizes TNF-α action. […] All of the treatment regimens used with the diabetic rats were given for at least three weeks before wound initiation, and this form of treatment continued during the course of wound healing.
Animals were sacrificed at 3 and 7 days post-wounding. An area that included the complete epithelial margins was excised, and the wounds were bisected and processed so that the mid-point of the wound was sectioned and compared between groups. The resulting specimens were either fixed in 4% paraformaldehyde in phosphate-sucrose buffer and analyzed histologically, or flash frozen in liquid nitrogen and stored at −80° C. prior to biochemical analysis, or embedded in Optimum Cutting Temperature (OCT) compound and immediately frozen in liquid nitrogen for immunofluorescence analysis. It is worthy of note that the number of wounds used for most of the aforementioned studies were in the range of 48 to 60 wounds per treatment. Some parameters related to sex hormones and oxidative stress were measured in serum or wound fluids, which were collected on day 7 post-wounding from subcutaneously inserted stainless steel mesh chambers.

[2] = test system: TGF-β1-Smad signaling pathway; test: TGF-β/Smad-dependent signaling in diabetic wounds; format: in vivo, rat; conditions: wounds from treated diabetic rats, day 7; for TGF-βRII expression: FIG. 3D; for phospho-Smad2: FIG. 3E; for Smad7 levels: FIG. 3F
Experimental: Samples of the total cellular and nuclear extracts were subjected to protein determinations using the Bicinchoninic Acid Protein Assay Kit (Pierce). For western blotting, an equal volume of 2×SDS sample buffer was added, and the samples were denatured by boiling for 5 minutes. Proteins were applied to SDS-polyacrylamide gel electrophoresis (SDS-PAGE) and transferred to an Immobilon polyvinylidene difluoride membrane (BioRad). The membranes were blocked with tris buffered saline containing 0.05% Tween 20 and 5% skim milk, and then treated with a number of primary antibodies, including Smad2/p-Smad2 (Cell Signaling), Smad7 (Imgenex), and β3-integrin (Santa Cruz). Protein bands were visualized by chemiluminescence (Pierce), and band intensity was determined using Bio-Rad densitometer. Unless otherwise specified, β-actin was used to standardize the quantity of sample protein for all Western blotting analyses.

wound macrophage markers = conditions: diabetic wounds
NF-κB = NF-κB p65-DNA binding activity in wounds; format: in vivo, rat; conditions: wounds from treated diabetic rats; FIG. 5G
Experimental: To assess protein expression and NF-κB activation, frozen liquid nitrogen powdered wounded tissues or serum starved RDFs/HDFs were homogenized on ice in a RIPA buffer (50 mM Tris pH 7.4, 150 mM NaCl, 10 mM EDTA, 2 mM sodium vanadate, 150 mM sodium fluoride, 0.5% sodium deoxycholate, 1% Triton X-100, and a cocktail of protease inhibitors) for total cellular proteins, or with a hypotonic buffer A (10 mM HEPES pH 7.9, 10 mM KCl, 2 mM MgCl2, 0.1 mM EDTA, 1.0 mM DTT, 0.5 mM PMSF, 20 mM NaF, 1 mM sodium orthovanadate and a cocktail of protease inhibitors) for the nuclear protein extraction. […] Similarly, the hypotonic buffer-dependent homogenates (500 μl) were incubated on ice for 20 minutes, after which 50 μl of 10% NP-40 was added. The mixture was vortexed and centrifuged (5000×g, 1 min, 4° C.). […]
A quantitative analysis of p65-DNA binding activity was performed on the nuclear protein extracts using the ELISA-based TransAM NFκB Transcription Factor Assay Kit (Active Motif) according to the manufacturer's instruction. […] The activated transcription factor, specifically bound to the immobilized oligonucleotide, was detected using an antibody directed against NF-κB and a secondary antibody conjugated to horseradish peroxidase. The developing solution was then added, and the OD (450-665 mm) was measured using a microplate reader (Thermo Scientific). Results were expressed as % of control.

[3] = test system: rheumatoid arthritis in rat models; conditions: subcutaneous administration, dose of 0.3 mg/kg; cited from earlier work
GK diabetic rats [4] = test: Insulin sensitivity clamp (Rapid Insulin Sensitivity Test) in female diabetic rats
GK diabetic rats [5] = test: Full-thickness excisional wound healing in GK diabetic rats (closure, re-epithelialization, ECM deposition); conditions: diabetic wounds
[6] = GK diabetic rats treated, plasma, mean±SEM
[7] = GK diabetic rats treated, wound fluid day 7 post-wounding, mean±SEM
[8] = female GK diabetic rats treated, mean±SEM

Question: Which “Weight (g) Uterus” value ([1]; GK diabetic rats treated, mean±SEM) does the source give for `C[C@]12CC[C@@H]3c4ccc(O)cc4CC[C@H]3[C@@H]1CC[C@@H]2O` [E2, β-estradiol] here?
Answer: The value was 0.41 ± 0.04 g.

Question: And the “Plasma F2 Isoprostanes” value [1, 6]?
Answer: Its value is 47 ± 6.6 pg/mL.

Question: What about the “Plasma Testosterone” value [1, 6] of the same compound?
Answer: Its value is 849 ± 85 pg/mL.

Question: What about the “Wound fluid F2 Isoprostanes” value [1, 7] of the same compound?
Answer: Its value is 43 ± 4.4 pg/mL.

Question: What about the “Wound fluid Testosterone” value [1, 7] of the same compound?
Answer: The value was 456 ± 47 pg/mL.

Question: And the “diabetes-related abnormalities (testosterone, F2 isoprostanes, uterine weights, plasma and wound E2 levels)” value ([1]; GK diabetic rats, Table 1)?
Answer: The value was “Most of the aforementioned abnormalities were normalized”.

Question: And the TGF-βRII expression [2]?
Answer: The TGF-βRII expression was “augmented”.

Question: What about the phospho-Smad2 [2] of the same compound?
Answer: The phospho-Smad2 was “augmented”.

Question: And the Smad7 levels [2]?
Answer: The Smad7 levels was “decreased”.

Question: What about the “up-regulation in M1 macrophage-derived markers, together with the resolution of inflammation within the diabetic wound microenvironment” value (wound macrophage markers; FIG. 5C-E) of the same compound?
Answer: The value was “normalized”.

Question: And the “diabetes-related decrease in the expression of wound M2 macrophage phenotype” value (wound macrophage markers; FIGS. 2F, 2G, 3A, 3B, 5F)?
Answer: The value was “partial reversal”.

Question: For “TNFR1: soluble pegylated long-lasting form of TNF-RI (Amgen) that neutralizes TNF-α action”, which “Plasma F2 Isoprostanes” value [1, 6] is on record?
Answer: The value was 69 ± 8.4 pg/mL.

Question: What about the “Wound fluid F2 Isoprostanes” value [1, 7] of the same compound?
Answer: Its value is 59 ± 5.2 pg/mL.

Question: And the TGF-βRII expression [2]?
Answer: The TGF-βRII expression was “augmented”.

Question: What about the phospho-Smad2 [2] of the same compound?
Answer: The phospho-Smad2 was “augmented”.

Question: And the Smad7 levels [2]?
Answer: The Smad7 levels was “decreased”.

Question: And the NF-κB activity (NF-κB)?
Answer: The NF-κB activity was “significant decrease”.

Question: And the pro-resolving/M2 polarizing effect (wound macrophage markers)?
Answer: Its pro-resolving/M2 polarizing effect is “recapitulated”.

Question: And the “inflammatory reaction of rheumatoid arthritis” value [3]?
Answer: Its value is “appears to limit the inflammatory reaction”.

Question: And the “effect on carbohydrate tolerance” value (GK diabetic rats [4]; diabetic animals, Table 2)?
Answer: The value was “favorable effect”.

Question: And the hyperinsulinemic state (GK diabetic rats [4]; diabetic animals, Table 2)?
Answer: Its hyperinsulinemic state is “partially ameliorated”.

Question: And the “target tissue sensitivity to insulin (increase in glucose infusion rate)” value (GK diabetic rats [4]; diabetic animals, Table 2)?
Answer: The value was “significantly improved”.

Question: What about the “GIR: Glucose infusion rate” value (GK diabetic rats [4]; female GK diabetic rats treated, clamp, mean±SEM) of the same compound?
Answer: The value was 18.53 ± 1.49 mg/min/kg body wt.

Question: And the “FBG: Fasting blood glucose” value (GK diabetic rats [4]; [8])?
Answer: The value was 125 ± 17 mg/dL.

Question: What about the “FPI: Fasting plasma insulin” value (GK diabetic rats [4]; [8]) of the same compound?
Answer: Its value is 0.68 ± 0.05 ng/mL.

Question: And the “PCPI: Post clamp plasma insulin” value (GK diabetic rats [4]; [8])?
Answer: Its value is 4.61 ± 0.4 ng/mL.

Question: And the “deposition of ECM” value (GK diabetic rats [5]; FIG. 2A-D)?
Answer: The value was “significant improvement”.

Question: What about the “healing process, at the macroscopic and microscopic levels” value (GK diabetic rats [5]; FIGS. 1A and B) of the same compound?
Answer: The value was “significant improvement”.
